Key:
Assay type in all cases: binding
[1] = system: human monoclonal antibody CRJB
[2] = system: human monoclonal antibody CRJA
[3] = system: human monoclonal antibody CR57
[4] = system: human monoclonal antibody CRJA; remark: listed apart in the source
[5] = system: human monoclonal antibody CRJB; remark: listed apart in the source
[6] = system: human monoclonal antibody CR57; remark: listed apart in the source

Sequence	Binding of human monoclonal antibody CRJB to linear peptide (PEPSCAN-ELISA signal) [1]	Binding of human monoclonal antibody CRJA to linear peptide (PEPSCAN-ELISA signal) [2]	Binding of CR57 to looped/cyclic peptide (PEPSCAN-ELISA signal) [3]	Binding of CRJA to looped/cyclic peptide (PEPSCAN-ELISA signal) [4]	Binding of CRJB to looped/cyclic peptide (PEPSCAN-ELISA signal) [5]	Binding of human monoclonal antibody CR57 to linear peptide (PEPSCAN-ELISA signal) [6]	Binding of CRJB to linear peptide (PEPSCAN-ELISA signal) [1]	Binding of CRJA to linear peptide (PEPSCAN-ELISA signal) [2]	Binding of CR57 (10 μg/ml) to looped/cyclic peptide (PEPSCAN-ELISA signal) [3]	Binding of CRJA (10 μg/ml) to looped/cyclic peptide (PEPSCAN-ELISA signal) [4]	Binding of CRJB (10 μg/ml) to looped/cyclic peptide (PEPSCAN-ELISA signal) [5]	Binding of CR57 to linear peptide (PEPSCAN-ELISA signal) [6]	Binding of CR57 (10 μg/ml) to looped/cyclic peptide (PEPSCAN-ELISA) [3]	Binding of CRJA (10 μg/ml) to looped/cyclic peptide (PEPSCAN-ELISA) [4]	Binding of CRJB (10 μg/ml) to looped/cyclic peptide (PEPSCAN-ELISA) [5]
VHNQVSGVDLGLPNW	119	120	125	106	106	100	–	–	–	–	–	–	–	–	–
VHPLADPSTVFKDGD	138	111	107	99	79	98	–	–	–	–	–	–	–	–	–
VIISPSVADLDPYDR	–	–	–	–	–	–	98	47	90	100	82	59	–	–	–
VIPLVHPLADPSTVF	–	–	–	–	–	–	141	92	–	–	–	69	77	84	92
VKTTKESLVIISPSV	–	–	–	–	–	–	120	96	98	100	92	71	–	–	–
VLGLRLMDGTWVAMQ	–	–	–	–	–	–	141	107	–	–	–	90	94	108	106
VLIPEMQSSLLQQHM	–	–	–	–	–	–	104	78	–	–	–	92	114	92	85
VNGVFFNGIILGPDG	–	–	–	–	–	–	116	94	–	–	–	68	90	78	96
VNLHDFRSDEIEHLV	–	–	–	–	–	–	129	103	–	–	–	83	97	84	56
VPGFGKAYTIFNKTL	–	–	–	–	–	–	114	96	–	–	–	58	74	87	42
VRKREECLDALESIM	–	–	–	–	–	–	181	111	–	–	–	58	105	101	66
VRTWNEILPSKGCLR	–	–	–	–	–	–	124	105	–	–	–	90	121	114	98
VSFRRLSHLRKLVPG	–	–	–	–	–	–	111	55	–	–	–	90	141	99	94
VSSTYCSTNHDYTIW	–	–	–	–	–	–	107	80	89	88	61	78	–	–	–
VTEAENYTNFVGYVT	–	–	–	–	–	–	90	79	84	97	80	79	–	–	–
VTTTFKRKHFRPTPD	–	–	–	–	–	–	105	77	101	89	83	79	–	–	–
VVEDEGCTNLSGFSY	–	–	–	–	–	–	107	63	79	68	66	73	–	–	–
VVEELVRKREECLDA	–	–	–	–	–	–	108	90	–	–	–	62	30	59	5
VVTEAENYTNFVGYV	–	–	–	–	–	–	106	90	80	58	62	87	–	–	–
WCPPDQLVNLHDFRS	–	–	–	–	–	–	119	114	–	–	–	101	105	111	106
WKMAGDPRYEESLHN	–	–	–	–	–	–	101	86	96	90	77	69	–	–	–
WLRTVKTTKESLVII	–	–	–	–	–	–	104	85	55	78	78	41	–	–	–
